In the supplement of paper PMC10307832:

Columns and labels:
[1] = compound: C(C(=O)C(=O)O)Br [Bromopyruvate] + CCNC(=O)c1noc(-c2cc(C(C)C)c(O)cc2O)c1-c1ccc(CN2CCOCC2)cc1 [Luminespib] (partner 0.01 µM); assay: relative viability (nuclei count vs DMSO), 5 days (fraction); higher = more cells survive
In short: (§1)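 Relative viability is defined as nuclei in treated wells over nuclei in vehicle wells. Duplicate plates were run and medians reported. Lung cancer cell lines in 1536-well plates were dosed by pin tool one day after seeding, with one drug or with a fixed anchor-drug dose plus five library-drug doses (not always all listed) in √10 steps, and nuclei were counted after 5 days.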

[2] = compound: C(C(=O)C(=O)O)Br [Bromopyruvate] + Cc1nc(Nc2ncc(C(=O)Nc3c(C)cccc3Cl)s2)cc(N2CCN(CCO)CC2)n1 [Dasatinib] (partner 0.075 µM); assay: as above
In short: as §1

Row | Cell Line | relative viability ([1]; first compound 1 µM) | relative viability ([1]; first compound 3.162 µM) | relative viability ([1]; first compound 10 µM) | relative viability ([1]; first compound 31.62 µM) | relative viability ([1]; first compound 100 µM) | relative viability ([2]; first compound 1 µM) | relative viability ([2]; first compound 3.162 µM) | relative viability ([2]; first compound 10 µM) | relative viability ([2]; first compound 31.62 µM) | relative viability ([2]; first compound 100 µM)
1 | NCI-H522 | 1.07 | 1.16 | 1.11 | 1.28 | 1.29 | 0.856 | 0.781 | 0.816 | 0.892 | 1.01
2 | HCC-15 | 0.363 | 0.416 | 0.509 | 0.328 | 0.25 | 0.654 | 0.633 | 0.606 | 0.744 | 0.541
3 | A-427 | 0.763 | 1.04 | 0.918 | 0.971 | 0.817 | 0.733 | 0.688 | 0.685 | 0.669 | 0.685
4 | NCI-H23 | 0.216 | 0.182 | 0.238 | 0.203 | 0.201 | 0.721 | 0.794 | 1.1 | 0.775 | 1.07
5 | NCI-H1734 | 0.174 | 0.225 | 0.212 | 0.175 | 0.201 | 0.462 | 0.436 | 0.548 | 0.44 | 0.365
6 | NCI-H1993 | 0.483 | 0.997 | 1.26 | 0.862 | 0.833 | 0.826 | 0.766 | 0.841 | 0.652 | 0.617
7 | PC-3 [JPC-3] | 0.797 | 0.752 | 0.766 | 0.608 | 0.693 | 1.06 | 1.03 | 1.06 | 1.02 | 1.1
8 | NCI-H1915 | 0.673 | 0.849 | 0.925 | 0.706 | 0.781 | 0.331 | 0.326 | 0.319 | 0.275 | 0.315
9 | NCI-H1666 | 1.08 | 1.14 | 0.989 | 1.04 | 0.844 | 0.847 | 0.839 | 0.785 | 0.855 | 0.694
10 | HCC-366 |  |  |  |  |  | 0.614 | 0.672 | 1.01 | 0.643 | 0.585
11 | SK-MES-1 | 0.615 | 0.882 | 0.948 | 0.805 | 0.881 | 0.424 | 0.332 | 0.345 | 0.339 | 0.417
12 | NCI-H727 | 0.277 | 0.571 | 0.218 | 0.377 | 0.592 | 0.474 | 0.301 | 0.29 | 0.401 | 0.314
13 | RERF-LC-KJ | 1.28 | 1.32 | 1.2 | 1.21 | 1.23 | 0.882 | 0.797 | 1.04 | 0.878 | 0.73
14 | NCI-H1623 | 0.545 | 0.523 | 0.747 | 0.489 | 0.504 | 0.574 | 0.487 | 0.672 | 0.597 | 0.576
15 | LC-2-ad | 1.02 | 1.11 | 1.21 | 1.04 | 0.843 | 0.765 | 0.671 | 0.634 | 0.54 | 0.437
16 | CAL-12T | 0.375 | 0.421 | 0.606 | 0.285 | 0.357 | 0.488 | 0.341 | 0.409 | 0.539 | 0.392
17 | SK-LU-1 | 0.213 | 0.195 | 0.208 | 0.194 | 0.215 | 0.171 | 0.153 | 0.19 | 0.171 | 0.165

Row | Cell Line | relative viability ([1]; first compound 1 µM) | relative viability ([1]; first compound 3.162 µM) | relative viability ([1]; first compound 10 µM) | relative viability ([1]; first compound 31.62 µM) | relative viability ([1]; first compound 100 µM) | relative viability ([2]; first compound 1 µM) | relative viability ([2]; first compound 3.162 µM) | relative viability ([2]; first compound 10 µM) | relative viability ([2]; first compound 31.62 µM) | relative viability ([2]; first compound 100 µM)
18 | NCI-H1650 | 0.19 | 0.224 | 0.186 | 0.177 | 0.182 | 0.309 | 0.268 | 0.289 | 0.395 | 0.211
19 | BEN | 0.587 | 0.342 | 0.66 | 0.303 | 0.295 | 0.367 | 0.297 | 0.354 | 0.26 | 0.379
20 | EMC-BAC-2 | 0.993 | 1.24 | 1.29 | 1.22 | 1.22 | 0.317 | 0.34 | 0.449 | 0.297 | 0.334
21 | LU99A | 0.301 | 0.313 | 0.273 | 0.248 | 0.213 | 0.515 | 0.568 | 0.575 | 0.552 | 0.534
22 | ABC-1 | 0.519 | 0.823 | 0.575 | 0.499 | 0.234 | 0.692 | 0.492 | 0.62 | 0.584 | 0.348
23 | NCI-H2170 | 0.75 | 0.979 | 0.689 | 0.574 | 0.583 | 0.553 | 0.509 | 0.59 | 0.627 | 0.635
24 | NCI-H2405 | 0.719 | 0.643 | 0.738 | 0.741 | 0.675 | 0.242 | 0.218 | 0.209 | 0.19 | 0.231
25 | NCI-H2009 | 1 | 1.09 | 0.953 | 1.01 | 0.708 | 0.281 | 0.297 | 0.279 | 0.243 | 0.202
26 | NCI-H441 | 0.445 | 0.505 | 0.323 | 0.524 | 0.38 | 0.64 | 0.618 | 0.693 | 0.677 | 0.486
27 | PC-14 | 0.191 | 0.184 | 0.169 | 0.157 | 0.203 | 0.307 | 0.328 | 0.284 | 0.272 | 0.191
28 | HARA | 0.707 | 0.939 | 0.486 | 0.75 | 0.802 | 0.216 | 0.297 | 0.241 | 0.282 | 0.362
29 | NCI-H2126 | 0.888 | 0.892 | 0.943 | 0.896 | 0.874 | 0.659 | 0.594 | 0.611 | 0.622 | 0.587
30 | NCI-H1437 | 1.16 | 1.19 | 1.16 | 1.12 | 1.1 | 0.491 | 0.493 | 0.427 | 0.317 | 0.415
31 | NCI-H2342 | 0.756 | 0.775 | 0.661 | 0.57 | 0.531 | 0.307 | 0.292 | 0.319 | 0.285 | 0.319
32 | NCI-H1792 | 0.664 | 0.487 | 0.53 | 0.573 | 0.423 | 0.81 | 0.892 | 0.91 |  | 0.723
33 | ChaGo-K-1 | 0.565 | 0.697 | 0.646 | 0.705 | 0.417 | 0.59 | 0.607 | 0.604 | 0.586 | 0.589
34 | NCI-H661 | 0.882 | 0.969 | 0.964 | 0.91 | 0.892 | 0.785 | 1.02 | 0.929 | 0.943 | 1.05
